Measured values published in publication PMC6736837, “^18F-labelled triazolyl-linked argininamides targeting the neuropeptide Y Y1R for PET imaging of mammary carcinoma” (Scientific Reports, 2019).

Assays:
hY1R = target: T1, hY1R (Homo sapiens, UniProt P25929); assay: Y1R competition binding with [^3H]UR-MK299 on SK-N-MC neuroblastoma cells; conditions: displacement of [^3H]UR-MK299, SK-N-MC neuroblastoma cells
T1 construct: endogenous in cells; host or cells: SK-N-MC neuroblastoma cells
T1 sequence (P25929 1-384): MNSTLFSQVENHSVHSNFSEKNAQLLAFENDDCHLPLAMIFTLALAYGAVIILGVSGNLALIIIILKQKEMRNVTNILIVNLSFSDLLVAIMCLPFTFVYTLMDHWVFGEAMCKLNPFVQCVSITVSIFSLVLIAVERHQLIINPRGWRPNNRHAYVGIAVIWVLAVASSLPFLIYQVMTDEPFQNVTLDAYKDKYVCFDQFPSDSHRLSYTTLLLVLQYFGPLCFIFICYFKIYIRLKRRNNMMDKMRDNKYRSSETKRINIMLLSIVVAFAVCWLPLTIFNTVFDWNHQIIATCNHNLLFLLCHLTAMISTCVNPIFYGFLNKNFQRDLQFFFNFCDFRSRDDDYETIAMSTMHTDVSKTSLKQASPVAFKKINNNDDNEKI
Description: (§1) Data analysis (four-parameter sigmoidal fitting of specifically bound radioligand plotted against log(concentration) competitor) was performed using SigmaPlot (Systat Software, San Jose, CA, USA) (Y1R binding). IC50 values were converted to Ki values according to the Cheng-Prusoff equation[24].

hY2R = target: T2, hY2R (Homo sapiens, UniProt P49146); assay: Competition binding on CHO-hY2-Gqi5-mtAEQ cells with [^3H]propionyl-pNPY; conditions: for selectivity for Y1R over Y2R (multiple of the Ki value for Y1R): calculated from Ki values; for binding to Y2R (in words): maximum concentration of 10 µM
T2 construct: expressed in transfected cells; host or cells: CHO cells (CHO-hY2-Gqi5-mtAEQ)
T2 sequence (P49146 1-381): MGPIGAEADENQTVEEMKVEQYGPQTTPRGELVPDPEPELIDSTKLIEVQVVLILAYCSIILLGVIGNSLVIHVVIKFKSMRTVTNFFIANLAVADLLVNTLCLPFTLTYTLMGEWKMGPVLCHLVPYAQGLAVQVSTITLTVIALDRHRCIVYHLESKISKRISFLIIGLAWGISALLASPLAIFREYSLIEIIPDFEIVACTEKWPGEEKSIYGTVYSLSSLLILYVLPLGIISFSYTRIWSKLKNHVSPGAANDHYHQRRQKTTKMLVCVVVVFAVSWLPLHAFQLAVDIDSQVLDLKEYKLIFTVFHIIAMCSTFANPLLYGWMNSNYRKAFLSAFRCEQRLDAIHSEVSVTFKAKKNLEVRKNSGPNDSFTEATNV
Description: as §1
(§2) Table S1: Structures, in-vitro Y1 receptor affinities and selectivities of potential Y1R PET radioligands. For Y2R, Y4R and Y5R, Ki values are given in the first row. In the second row, the calculated selectivities for Y1R over Y2R, Y4R and Y5R are given as a multiple of the Ki value for […]
(§3) compound structure hY1R hY2R hY4R hY5R
(§4) Ki ± SEMa Kiselectivity selectivity selectivity […]
(§5) aDetermined by competition binding on SK-N-MC neuroblastoma cells using the radioligand [3H]UR-MK2994.
(§6) Mean Ki values ± SEM are the results of three individual experiments each performed in triplicate. bDetermined by competition binding at CHO-hY2-Gqi5-mtAEQ cells and HEC-1b hY5R cells using the radioligand [3H]propionyl-pNPY. Two independent experiments were performed in triplicate. cDetermined by competition binding on CHO-hY4R-Gqi5-mtAEQ cells using the radioligand [3H]UR-KK200.
(§7) Two independent experiments were performed in triplicate.
(§8) SEM = standard error of the mean. […]

hY5R = target: T3, hY5R (Homo sapiens, UniProt Q15761); assay: Competition binding on HEC-1b hY5R cells with [^3H]propionyl-pNPY; conditions: for selectivity for Y1R over Y5R (multiple of the Ki value for Y1R): calculated from Ki values; for binding to Y5R (in words): maximum concentration of 10 µM
T3 construct: expressed in transfected cells; host or cells: HEC-1b cells (HEC-1b hY5R)
T3 sequence (Q15761 1-445): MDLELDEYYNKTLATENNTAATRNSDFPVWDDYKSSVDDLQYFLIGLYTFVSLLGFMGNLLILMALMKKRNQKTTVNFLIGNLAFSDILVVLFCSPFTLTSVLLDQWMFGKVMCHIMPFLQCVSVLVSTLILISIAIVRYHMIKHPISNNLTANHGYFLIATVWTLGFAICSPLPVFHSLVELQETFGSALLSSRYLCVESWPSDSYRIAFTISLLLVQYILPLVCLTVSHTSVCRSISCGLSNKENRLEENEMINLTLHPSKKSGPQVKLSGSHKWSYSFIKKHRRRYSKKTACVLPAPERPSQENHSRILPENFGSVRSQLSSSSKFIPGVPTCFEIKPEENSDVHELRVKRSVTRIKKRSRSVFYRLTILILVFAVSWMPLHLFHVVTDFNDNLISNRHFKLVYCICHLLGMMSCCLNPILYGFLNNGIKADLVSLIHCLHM
Description: as §1, §2, §3, §4, §5, §6, §7, §8

hY4R = target: T4, hY4R (Homo sapiens, UniProt P50391); assay: Competition binding on CHO-hY4R-Gqi5-mtAEQ cells with [^3H]UR-KK200; conditions: for Ki: CHO-hY4R-Gqi5-mtAEQ cells, [^3H]UR-KK200; for selectivity for Y1R over Y4R (multiple of the Ki value for Y1R): calculated from Ki values; for binding to Y4R (in words): maximum concentration of 10 µM
T4 construct: expressed in transfected cells; host or cells: CHO cells (CHO-hY4R-Gqi5-mtAEQ)
T4 sequence (P50391 whole entry): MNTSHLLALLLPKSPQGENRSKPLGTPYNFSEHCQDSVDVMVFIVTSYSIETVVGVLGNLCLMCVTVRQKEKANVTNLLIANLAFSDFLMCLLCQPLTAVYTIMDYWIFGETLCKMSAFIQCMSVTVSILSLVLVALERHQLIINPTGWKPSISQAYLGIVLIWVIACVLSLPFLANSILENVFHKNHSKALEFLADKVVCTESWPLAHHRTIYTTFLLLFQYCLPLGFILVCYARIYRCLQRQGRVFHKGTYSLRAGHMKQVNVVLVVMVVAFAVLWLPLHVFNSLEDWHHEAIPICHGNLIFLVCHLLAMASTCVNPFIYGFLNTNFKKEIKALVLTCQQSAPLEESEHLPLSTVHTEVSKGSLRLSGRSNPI
Description: as §1, §2, §3, §4, §5, §6, §7, §8

SMILES | Ki (hY1R) [µM] | Ki (hY2R) [µM] | selectivity for Y1R over Y2R (multiple of the Ki value for Y1R) (hY2R) [×] | binding to Y2R (in words) (hY2R) | Ki (hY5R) [µM] | selectivity for Y1R over Y5R (multiple of the Ki value for Y1R) (hY5R) [×] | binding to Y5R (in words) (hY5R) | Ki (hY4R) [µM] | selectivity for Y1R over Y4R (multiple of the Ki value for Y1R) (hY4R) [×] | binding to Y4R (in words) (hY4R)
C#CCNC(=O)N=C(N)NCCC[C@@H](NC(=O)C(c1ccccc1)c1ccccc1)C(=O)NCc1ccc(O)cc1 [compound 7] | 0.00094 |  |  |  |  |  |  |  |  | 
N/C(=N/C(=O)NCc1cn([C@@H]2OC(CF)[C@@H](O)C(O)C2O)nn1)NCCC[C@@H](NC(=O)C(c1ccccc1)c1ccccc1)C(=O)NCc1ccc(O)cc1 (stereo partly drawn) [compound 11, (2R)‐5‐{[(1Z)‐Amino({[({1‐[(2R,5S)‐6‐(fluoromethyl)‐3,4,5‐trihydroxyoxan‐2‐yl]‐1H‐1,2,3‐triazol‐4‐yl}methyl)carbamoyl]imino})methyl]amino}‐2‐(2,2‐diphenylacetamido)‐N‐[(4‐hydroxyphenyl)-methyl]pentanamide] | 0.208 | > 10 | > 48 | None of the three compounds showed considerable binding | > 15 | > 72 | None of the three compounds showed considerable binding | > 3 | > 14 | None of the three compounds showed considerable binding
N/C(=N/C(=O)NCc1cn(CCOCCF)nn1)NCCC[C@@H](NC(=O)C(c1ccccc1)c1ccccc1)C(=O)NCc1ccc(O)cc1 [compound 12, (2R)‐5‐{[(1Z)‐Amino({[({1‐[2‐(2‐fluoroethoxy)ethyl]‐1H‐1,2,3‐triazol‐4‐yl}methyl)carbamoyl]-imino})methyl]amino}‐2‐(2,2‐diphenylacetamido)‐N‐[(4‐hydroxyphenyl)methyl]pentanamide] | 0.0028 | > 10 | > 3610 | None of the three compounds showed considerable binding | > 15 | > 5415 | None of the three compounds showed considerable binding | > 10 | > 3610 | None of the three compounds showed considerable binding
N/C(=N/C(=O)NCc1cn(CCOCCOCCOCCF)nn1)NCCC[C@@H](NC(=O)C(c1ccccc1)c1ccccc1)C(=O)NCc1ccc(O)cc1 [compound 13, (2R)‐5‐{[(1Z)‐Amino[({[1‐(2‐{2‐[2‐(2‐fluoroethoxy)ethoxy]ethoxy}ethyl)‐1H‐1,2,3‐triazol‐4‐yl]methyl}carbamoyl)imino]methyl]amino}‐2‐(2,2‐diphenylacetamido)‐N‐[(4‐hydroxyphenyl)-methyl]pentanamide] | 0.029 | > 5 | > 173 | None of the three compounds showed considerable binding | > 10 | > 345 | None of the three compounds showed considerable binding | > 10 | > 345 | None of the three compounds showed considerable binding
